Values of other authors, collected in US20100228037A1, “Process for Preparing Allylmercaptocaptopril (Cpssa) and Related Asymmetrical Disulfides” (Yeda Research And Development Co. Ltd. at the Weizmann …, priority 2006, published 2010).
Read-outs that look alike come from different tables or passages of the source.

Tests used:
[1] = blood or plasma of mammals
[2] = in vivo, rats
[3] = in vitro, human blood
[4] = rats, immediately after administration

Row | SMILES | stability in blood or plasma [1] | antihypertensive properties compared with unmodified captopril (rats; rat, in vivo) | blood pressure (rats; [4]) | serum level of insulin (rats; [4]) | serum level of triglycerides (rats; [4]) | disintegration in blood after administration [2] | disintegration in blood after administration [3]
1 | C=CCSSC[C@H](C)C(=O)N1CCC[C@H]1C(=O)O [CPSSA, allylmercaptocaptopril] | stable in blood or plasma of mammals | improved antihypertensive properties | significantly decreased blood pressure | to near normal levels | to near normal levels |  | 
2 | C=CCS[S+]([O-])CC=C (stereo not shown) [allicin] |  |  |  |  |  | disintegrates in the blood a few minutes post its administration | disintegrates in the blood a few minutes post its administration
